Source: article PMC5791972 (PLoS ONE, 2018)
Like-named read-outs stand apart in the source and are kept apart here.

Key:
tyrosine hydroxylase = molecular target: T1, tyrosine hydroxylase (Rattus norvegicus, UniProt P04177); test: enzyme assay; assay type: biochemical; settings: 1.0E-06 M
T1 construct: rat striatum; from tissue; host or cells: rat striatum

range of ion channels = test: Ion channel selectivity panel, whole-cell manual patch clamp; assay type: cell-based; settings: at 1.9 μM
in vitro = settings: plasma
5-HT4e (h) = 5-HT4e (h) (Homo sapiens, UniProt Q13639); test: biochemical
Sequence of 5-HT4e (h) (Q13639 1-378 isoform Q13639-5): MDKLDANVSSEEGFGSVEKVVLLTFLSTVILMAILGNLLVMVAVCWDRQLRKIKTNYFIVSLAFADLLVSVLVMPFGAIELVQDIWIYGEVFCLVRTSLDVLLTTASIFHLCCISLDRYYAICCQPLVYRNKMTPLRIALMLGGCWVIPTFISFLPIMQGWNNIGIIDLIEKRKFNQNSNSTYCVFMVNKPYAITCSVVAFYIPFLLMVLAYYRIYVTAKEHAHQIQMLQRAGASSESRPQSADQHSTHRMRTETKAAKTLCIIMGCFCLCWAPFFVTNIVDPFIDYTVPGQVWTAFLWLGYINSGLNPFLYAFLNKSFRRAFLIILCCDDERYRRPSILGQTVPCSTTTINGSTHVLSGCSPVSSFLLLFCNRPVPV

hTRPC4 = molecular target: T2, hTRPC4 (Homo sapiens, UniProt Q9UBN4); test: Whole-cell manual patch clamp; assay type: cell-based; settings: 10 µM carbachol /M1R
T2 construct: The cDNAs for various full-length ion channels were subcloned into pcDNA5/TO; expressed in transfected cells; M1R co-expressed in the calcium assay, M2R in patch clamp

COX2 (h) = molecular target: T3, COX2 (h) (Homo sapiens, UniProt P35354); test: enzyme assay; assay type: biochemical; settings: 1.0E-06 M
T3 construct: Cerep (contract assay); host or cells: Sf9 cells
T3 sequence (P35354 18-604): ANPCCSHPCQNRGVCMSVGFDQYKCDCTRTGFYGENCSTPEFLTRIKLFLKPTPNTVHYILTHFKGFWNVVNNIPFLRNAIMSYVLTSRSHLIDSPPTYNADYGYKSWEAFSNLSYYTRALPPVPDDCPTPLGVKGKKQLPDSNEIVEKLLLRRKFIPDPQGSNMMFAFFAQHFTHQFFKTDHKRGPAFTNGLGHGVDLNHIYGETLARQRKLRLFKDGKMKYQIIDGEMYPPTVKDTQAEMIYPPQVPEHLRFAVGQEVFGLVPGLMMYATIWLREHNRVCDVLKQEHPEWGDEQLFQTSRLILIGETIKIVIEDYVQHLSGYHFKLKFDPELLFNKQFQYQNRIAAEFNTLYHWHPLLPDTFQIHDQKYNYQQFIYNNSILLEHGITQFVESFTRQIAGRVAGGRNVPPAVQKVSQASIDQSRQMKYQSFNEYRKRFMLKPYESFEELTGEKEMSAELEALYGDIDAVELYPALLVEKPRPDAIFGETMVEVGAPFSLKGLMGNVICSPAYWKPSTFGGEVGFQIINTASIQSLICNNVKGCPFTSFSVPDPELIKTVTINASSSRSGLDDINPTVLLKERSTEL

hERG = hERG (Homo sapiens, UniProt Q12809); test: Ion channel selectivity patch clamp
TRPC6 = TRPC6 (Homo sapiens, UniProt Q9Y210); test: cell-based
TRPM8 = TRPM8 (Homo sapiens, UniProt Q7Z2W7); test: cell-based
Ca2+ channel (N) = Ca2+ channel (N) (Rattus norvegicus, UniProt Q02294); test: biochemical; assay type: binding
Sequence of Ca2+ channel (N) (Q02294 whole entry): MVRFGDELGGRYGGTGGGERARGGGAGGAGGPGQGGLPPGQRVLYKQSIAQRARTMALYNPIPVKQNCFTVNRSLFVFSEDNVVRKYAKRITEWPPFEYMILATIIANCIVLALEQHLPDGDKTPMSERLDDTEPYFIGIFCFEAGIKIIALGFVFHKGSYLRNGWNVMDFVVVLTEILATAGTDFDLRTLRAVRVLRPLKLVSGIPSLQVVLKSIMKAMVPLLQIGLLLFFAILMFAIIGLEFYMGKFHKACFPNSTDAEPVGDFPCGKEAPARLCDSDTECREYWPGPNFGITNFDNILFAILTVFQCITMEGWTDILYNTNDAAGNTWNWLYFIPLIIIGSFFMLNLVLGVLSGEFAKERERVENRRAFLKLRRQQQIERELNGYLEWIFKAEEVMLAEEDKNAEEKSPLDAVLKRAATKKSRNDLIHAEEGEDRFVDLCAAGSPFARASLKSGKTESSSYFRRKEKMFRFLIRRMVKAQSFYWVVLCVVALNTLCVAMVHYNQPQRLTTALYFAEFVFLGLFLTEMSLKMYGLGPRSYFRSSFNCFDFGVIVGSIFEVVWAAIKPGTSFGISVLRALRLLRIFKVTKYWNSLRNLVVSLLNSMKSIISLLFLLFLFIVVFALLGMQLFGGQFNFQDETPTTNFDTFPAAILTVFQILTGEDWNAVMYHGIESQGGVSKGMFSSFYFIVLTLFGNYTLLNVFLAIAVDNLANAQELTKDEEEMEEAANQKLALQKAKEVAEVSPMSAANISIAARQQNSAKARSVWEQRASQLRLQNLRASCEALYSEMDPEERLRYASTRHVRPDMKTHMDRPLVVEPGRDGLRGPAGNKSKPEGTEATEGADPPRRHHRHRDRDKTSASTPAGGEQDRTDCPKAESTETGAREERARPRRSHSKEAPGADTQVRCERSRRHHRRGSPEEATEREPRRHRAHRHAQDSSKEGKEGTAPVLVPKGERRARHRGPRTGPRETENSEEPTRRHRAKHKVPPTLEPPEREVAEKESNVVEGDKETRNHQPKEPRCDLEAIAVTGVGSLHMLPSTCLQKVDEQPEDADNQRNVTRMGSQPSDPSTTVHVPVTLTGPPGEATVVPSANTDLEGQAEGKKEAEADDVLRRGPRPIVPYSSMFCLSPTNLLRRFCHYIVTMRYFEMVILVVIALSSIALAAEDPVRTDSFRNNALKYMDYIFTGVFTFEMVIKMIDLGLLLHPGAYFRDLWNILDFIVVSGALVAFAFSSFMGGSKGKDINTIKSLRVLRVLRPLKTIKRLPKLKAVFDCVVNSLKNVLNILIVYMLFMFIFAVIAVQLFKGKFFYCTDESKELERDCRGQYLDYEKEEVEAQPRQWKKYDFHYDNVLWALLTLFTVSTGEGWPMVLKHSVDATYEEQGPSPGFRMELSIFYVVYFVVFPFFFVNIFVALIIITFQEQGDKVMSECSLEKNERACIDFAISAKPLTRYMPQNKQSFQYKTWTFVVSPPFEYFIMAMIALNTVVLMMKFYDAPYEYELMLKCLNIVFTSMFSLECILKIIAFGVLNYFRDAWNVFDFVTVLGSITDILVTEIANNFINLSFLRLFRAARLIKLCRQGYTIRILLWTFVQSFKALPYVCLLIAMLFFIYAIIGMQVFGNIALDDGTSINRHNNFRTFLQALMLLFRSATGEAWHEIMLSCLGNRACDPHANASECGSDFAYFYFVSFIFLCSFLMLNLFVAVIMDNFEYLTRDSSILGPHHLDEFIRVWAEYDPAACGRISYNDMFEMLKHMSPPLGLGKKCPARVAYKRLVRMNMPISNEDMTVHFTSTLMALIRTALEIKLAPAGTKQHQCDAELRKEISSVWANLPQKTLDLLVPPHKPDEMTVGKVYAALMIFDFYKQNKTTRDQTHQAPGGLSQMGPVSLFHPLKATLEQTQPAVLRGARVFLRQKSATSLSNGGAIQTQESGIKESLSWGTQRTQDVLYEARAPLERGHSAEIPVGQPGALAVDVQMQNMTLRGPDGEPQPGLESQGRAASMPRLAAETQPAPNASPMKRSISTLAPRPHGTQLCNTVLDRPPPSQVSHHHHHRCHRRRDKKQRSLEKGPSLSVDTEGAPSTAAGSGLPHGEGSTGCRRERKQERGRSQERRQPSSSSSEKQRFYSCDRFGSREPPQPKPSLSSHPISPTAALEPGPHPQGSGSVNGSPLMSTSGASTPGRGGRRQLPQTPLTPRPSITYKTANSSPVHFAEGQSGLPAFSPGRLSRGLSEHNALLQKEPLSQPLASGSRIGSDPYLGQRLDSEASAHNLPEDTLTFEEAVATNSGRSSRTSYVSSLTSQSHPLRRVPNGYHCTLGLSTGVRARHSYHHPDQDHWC
Sequence of Ca2+ channel (N) (P54290 25-944 partner limits assumed): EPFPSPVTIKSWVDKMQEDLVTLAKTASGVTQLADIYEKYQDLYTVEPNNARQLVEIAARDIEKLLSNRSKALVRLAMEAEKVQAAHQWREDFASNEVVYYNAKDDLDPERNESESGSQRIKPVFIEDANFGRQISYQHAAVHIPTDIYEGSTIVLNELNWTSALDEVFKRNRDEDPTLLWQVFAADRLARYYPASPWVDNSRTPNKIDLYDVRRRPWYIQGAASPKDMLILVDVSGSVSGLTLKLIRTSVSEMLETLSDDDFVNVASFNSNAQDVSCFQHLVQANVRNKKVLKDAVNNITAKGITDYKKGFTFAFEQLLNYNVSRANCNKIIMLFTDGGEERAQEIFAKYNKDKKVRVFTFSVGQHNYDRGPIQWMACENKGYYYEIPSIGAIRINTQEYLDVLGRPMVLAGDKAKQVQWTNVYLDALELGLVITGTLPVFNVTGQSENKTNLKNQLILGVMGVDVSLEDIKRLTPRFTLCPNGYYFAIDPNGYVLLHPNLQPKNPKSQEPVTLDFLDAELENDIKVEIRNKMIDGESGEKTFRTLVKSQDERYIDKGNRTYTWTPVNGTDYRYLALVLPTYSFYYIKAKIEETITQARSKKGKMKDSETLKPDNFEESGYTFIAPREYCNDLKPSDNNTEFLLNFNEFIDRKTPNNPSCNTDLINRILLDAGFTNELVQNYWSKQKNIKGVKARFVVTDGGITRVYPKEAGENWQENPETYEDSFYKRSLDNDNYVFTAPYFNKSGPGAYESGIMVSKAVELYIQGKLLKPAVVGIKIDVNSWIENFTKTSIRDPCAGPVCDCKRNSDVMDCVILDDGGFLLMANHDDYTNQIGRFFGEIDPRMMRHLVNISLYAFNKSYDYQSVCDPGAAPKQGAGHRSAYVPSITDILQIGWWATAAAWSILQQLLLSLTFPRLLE
Sequence of Ca2+ channel (N) (P54290 945-1091 partner limits assumed): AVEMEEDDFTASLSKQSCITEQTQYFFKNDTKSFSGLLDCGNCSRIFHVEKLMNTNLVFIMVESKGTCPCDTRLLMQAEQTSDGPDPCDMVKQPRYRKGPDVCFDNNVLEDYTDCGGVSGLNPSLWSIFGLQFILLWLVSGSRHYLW
Sequence of Ca2+ channel (N) (P54287 whole entry partner): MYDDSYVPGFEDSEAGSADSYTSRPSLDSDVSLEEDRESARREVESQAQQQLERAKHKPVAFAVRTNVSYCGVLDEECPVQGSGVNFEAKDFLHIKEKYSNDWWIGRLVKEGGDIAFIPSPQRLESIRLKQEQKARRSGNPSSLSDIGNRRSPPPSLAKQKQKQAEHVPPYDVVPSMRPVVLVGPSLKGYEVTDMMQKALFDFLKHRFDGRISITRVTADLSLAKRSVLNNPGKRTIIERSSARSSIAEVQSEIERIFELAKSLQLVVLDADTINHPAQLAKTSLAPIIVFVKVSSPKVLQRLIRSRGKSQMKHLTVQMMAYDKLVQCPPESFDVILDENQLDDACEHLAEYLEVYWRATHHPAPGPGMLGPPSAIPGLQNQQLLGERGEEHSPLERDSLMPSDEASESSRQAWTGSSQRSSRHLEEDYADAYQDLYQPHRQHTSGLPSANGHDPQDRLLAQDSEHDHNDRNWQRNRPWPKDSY

UT (h) = molecular target: T4, UT (h) (Homo sapiens, UniProt Q9UKP6); assay type: binding
T4 construct: host or cells: CHO cells
T4 sequence (Q9UKP6 1-389): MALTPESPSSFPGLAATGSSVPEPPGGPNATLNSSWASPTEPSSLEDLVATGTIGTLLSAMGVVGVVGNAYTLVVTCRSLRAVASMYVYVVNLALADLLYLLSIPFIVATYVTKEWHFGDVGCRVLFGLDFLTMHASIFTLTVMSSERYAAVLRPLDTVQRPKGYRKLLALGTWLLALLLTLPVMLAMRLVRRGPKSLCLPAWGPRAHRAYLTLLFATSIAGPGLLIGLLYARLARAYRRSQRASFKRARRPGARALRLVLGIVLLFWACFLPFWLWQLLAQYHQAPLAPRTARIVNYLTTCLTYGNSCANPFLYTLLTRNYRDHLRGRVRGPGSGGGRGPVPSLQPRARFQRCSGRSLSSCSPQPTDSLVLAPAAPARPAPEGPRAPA

AT1 (h) = molecular target: T5, AT1 (h) (Homo sapiens, UniProt P30556); assay type: binding; settings: 1.0E-06 M
T5 construct: host or cells: HEK-293 cells
T5 sequence (P30556 1-359): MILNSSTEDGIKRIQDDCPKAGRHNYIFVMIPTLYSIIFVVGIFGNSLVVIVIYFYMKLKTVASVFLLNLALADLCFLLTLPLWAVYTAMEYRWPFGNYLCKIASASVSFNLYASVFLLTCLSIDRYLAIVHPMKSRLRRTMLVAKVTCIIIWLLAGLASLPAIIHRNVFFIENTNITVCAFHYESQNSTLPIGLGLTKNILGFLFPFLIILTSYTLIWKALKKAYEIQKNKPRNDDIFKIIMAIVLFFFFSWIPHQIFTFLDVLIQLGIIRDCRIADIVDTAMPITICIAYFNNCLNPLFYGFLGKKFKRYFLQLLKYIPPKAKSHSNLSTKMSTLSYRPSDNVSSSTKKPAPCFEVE

kainate = assay type: binding, rat; settings: 1.0E-06 M

T1 sequence (P04177 whole entry): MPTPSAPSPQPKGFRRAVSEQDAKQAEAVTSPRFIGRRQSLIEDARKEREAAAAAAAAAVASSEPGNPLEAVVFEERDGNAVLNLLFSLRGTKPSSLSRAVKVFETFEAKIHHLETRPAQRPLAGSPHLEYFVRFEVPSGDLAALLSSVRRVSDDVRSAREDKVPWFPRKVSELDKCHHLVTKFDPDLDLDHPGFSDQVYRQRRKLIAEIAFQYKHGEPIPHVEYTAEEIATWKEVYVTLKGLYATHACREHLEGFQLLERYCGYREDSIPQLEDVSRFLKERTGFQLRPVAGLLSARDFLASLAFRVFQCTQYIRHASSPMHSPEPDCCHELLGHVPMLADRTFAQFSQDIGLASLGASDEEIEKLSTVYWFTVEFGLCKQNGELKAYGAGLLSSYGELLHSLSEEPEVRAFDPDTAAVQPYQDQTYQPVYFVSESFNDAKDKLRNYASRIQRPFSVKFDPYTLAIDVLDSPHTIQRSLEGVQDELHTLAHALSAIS

## Cn1c(=O)n(CCCO)c(=O)c2c1nc(Oc1cccc(Cl)c1)n2Cc1ccc(Cl)cc1 [HC-070]
Tyrosine hydroxylase; read-out: % Inhibition 1st
  inhibition at 1 µM: -27.2%
Tyrosine hydroxylase; read-out: % Inhibition Mean
  inhibition at 1 µM: -23%
Range of ion channels
  inhibition in most cases: ≤ 50%
In vitro
  fraction unbound: 0.004

## Cn1c(=O)n(CCCO)c(=O)c2c1nc(Oc1cccc(OC(F)(F)F)c1)n2Cc1ccc(Cl)cc1 [HC-608]
5-HT4e (h); read-out: % Inhibition 1st
  inhibition at 1 µM: -3.7%
5-HT4e (h); read-out: % Inhibition 2nd
  inhibition at 1 µM: 10.6%
5-HT4e (h); read-out: % Inhibition Mean
  inhibition at 1 µM: 3.4%
hTRPC4
  IC50: ~0.17 nM
COX2 (h); read-out: % Inhibition 1st
  inhibition at 1 µM: -5.6%
COX2 (h); read-out: % Inhibition 2nd
  inhibition at 1 µM: 11.8%
COX2 (h); read-out: % Inhibition Mean
  inhibition at 1 µM: 3.1%
hERG
  IC50: 1150 ± 130 nM
TRPC6
  IC50: > 1640 nM
TRPM8
  IC50: > 1640 nM
Ca2+ channel (N); read-out: % Inhibition 1st
  inhibition at 1 µM: -5.9%
Ca2+ channel (N); read-out: % Inhibition 2nd
  inhibition at 1 µM: -13.1%
Ca2+ channel (N); read-out: % Inhibition Mean
  inhibition at 1 µM: -9.5%
UT (h); 1.0E-06 M, read-out: % Inhibition 2nd
  inhibition at 1 µM: 7%
UT (h); 1.0E-06 M, read-out: % Inhibition Mean
  inhibition at 1 µM: 9.3%
UT (h); read-out: % Inhibition 1st
  inhibition at 1 µM: 11.5%
AT1 (h); read-out: % Inhibition 1st
  inhibition at 1 µM: 0.5%
AT1 (h); read-out: % Inhibition 2nd
  inhibition at 1 µM: -6%
AT1 (h); read-out: % Inhibition Mean
  inhibition at 1 µM: -2.7%
kainate
  % Inhibition 1st: 5.9%
  % Inhibition 2nd: 5.3%
  % Inhibition Mean: 5.6%
